Laboratory results as given in US8268848B2, “Cyclopropane compound” (Eisai R&D Management Co., Ltd., priority 2010, dated 2012).
Where two headings read alike, the source gives them in different places.

Assays:
OX1 = target: T1, OX1 (Homo sapiens, UniProt O43613); experiment: Measurement of orexin receptor-binding ability ([125I]-OX-A, cell membranes, OX1); parameters: expressed in transfected cells; host or cells: CHO cells (membrane preparation)
T1 sequence (O43613 1-425): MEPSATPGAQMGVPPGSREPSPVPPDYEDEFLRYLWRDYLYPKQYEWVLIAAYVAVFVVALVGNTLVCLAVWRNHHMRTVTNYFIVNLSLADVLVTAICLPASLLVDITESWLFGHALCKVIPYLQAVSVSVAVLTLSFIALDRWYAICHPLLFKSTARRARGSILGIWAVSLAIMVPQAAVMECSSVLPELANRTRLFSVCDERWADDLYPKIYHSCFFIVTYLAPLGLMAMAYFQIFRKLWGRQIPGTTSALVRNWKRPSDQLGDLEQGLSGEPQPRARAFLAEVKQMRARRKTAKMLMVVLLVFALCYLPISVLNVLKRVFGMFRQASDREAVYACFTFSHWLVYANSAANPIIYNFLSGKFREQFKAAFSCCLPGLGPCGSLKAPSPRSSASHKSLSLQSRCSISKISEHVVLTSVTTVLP

OX2 = target: T2, OX2 (Homo sapiens, UniProt O43614); experiment: Measurement of orexin receptor-binding ability ([125I]-OX-A, cell membranes, OX2); parameters: expressed in transfected cells; host or cells: CHO cells (membrane preparation); details: membranes of recombinant CHO cells expressing OX2, 0.2 nM [125I]-OX-A
T2 sequence (O43614 1-444): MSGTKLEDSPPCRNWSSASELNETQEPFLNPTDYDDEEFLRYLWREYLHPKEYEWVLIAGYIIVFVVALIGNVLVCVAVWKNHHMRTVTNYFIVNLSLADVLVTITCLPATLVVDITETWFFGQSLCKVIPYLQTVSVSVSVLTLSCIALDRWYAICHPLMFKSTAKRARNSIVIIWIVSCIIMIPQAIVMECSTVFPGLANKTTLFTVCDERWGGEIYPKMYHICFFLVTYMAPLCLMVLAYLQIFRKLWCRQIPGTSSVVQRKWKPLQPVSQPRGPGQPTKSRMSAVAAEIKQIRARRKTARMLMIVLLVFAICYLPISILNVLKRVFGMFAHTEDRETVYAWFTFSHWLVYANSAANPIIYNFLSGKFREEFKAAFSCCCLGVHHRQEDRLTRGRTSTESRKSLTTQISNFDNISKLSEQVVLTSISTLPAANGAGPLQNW

[1] = membranes of recombinant CHO cells expressing OX1, 0.2 nM [125I]-OX-A, read-out: OX1 (IC50)

Structure (SMILES)	IC50 (OX1) [nM]	IC50 (OX2; OX2 (IC50) nM) [nM]	IC50 (OX1; [1]) [nM]	IC50 (OX2; read-out: OX2 (IC50)) [nM]
Cc1ncc(OC[C@@]2(c3cc(F)ccc3O)C[C@H]2C(=O)Nc2ccc(F)cn2)c(C)n1 [Example 324, (1R,2S)-2-{[(2,4-dimethylpyrimidin-5-yl)oxy]methyl}-2-(5-fluoro-2-hydroxyphenyl]-N-(5-fluoropyridin-2-yl)cyclopropanecarboxamide]	113	5.9		
Cc1ncc(OC[C@@]2(c3ccccc3)C[C@H]2C(=O)Nc2ccnc(Cl)c2)c(C)n1 [Example 33]			209	15
Cc1ncc(OC[C@@]2(c3ccccc3)C[C@H]2C(=O)Nc2cccc(F)c2)c(C)n1 [Example 79]	90	26		
Cc1ncc(OCC2(c3cccc(C(F)(F)F)c3)CC2C(=O)Nc2ccc(C#N)cn2)c(C)n1 (stereo not drawn) [Example 264]			792	23
COCc1nc(C)ncc1OC[C@@]1(c2ccc(F)cc2)C[C@H]1C(=O)Nc1cc(C)c(F)cn1 [Example 205, (1R,2S)-N-(5-fluoro-4-methylpyridin-2-yl)-2-(4-fluorophenyl)-2-{[(4-methoxymethyl-2-methylpyrimidin-5-yl)oxy]methyl}cyclopropanecarboxamide]	9	6		
Cc1ccnc(NC(=O)[C@@H]2C[C@@]2(COc2cnc(C)nc2C)c2ccccc2)c1 [Example 47]			228	29
Cc1ncc(N(C)C[C@@]2(c3cccc(F)c3)C[C@H]2C(=O)Nc2cc(C)c(Cl)cn2)c(C)n1 [Example 295, (1R,2S)-N-(5-chloro-4-methylpyridin-2-yl)-2-[N-(2,4-dimethylpyrimidin-5-yl)methylaminomethyl]-2-(3-fluorophenyl)cyclopropanecarboxamide]			5	6
O=C(Nc1ccc(F)cn1)[C@@H]1C[C@@]1(COc1c[nH]c(=O)nc1C(F)(F)F)c1cc(F)cc(F)c1 [Example 291, (1R,2S)-2-(3,5-difluorophenyl)-N-(5-fluoropyridin-2-yl)-2-{[(2-oxo-4-trifluoromethyl-1,2-dihydropyrimidin-5-yl)oxy]methyl}cyclopropanecarboxamide]			> 200	49
Cc1ncc(OCC2(c3ccccc3Cl)CC2C(=O)Nc2ccc(F)cn2)c(C)n1 (stereo not drawn) [Example 151]	102	25		
COCc1nc(C)ncc1OC[C@@]1(c2ccc(F)cc2)C[C@H]1C(=O)Nc1ccc(F)cc1 [Example 203, (1R,2S)-N,2-bis(4-fluorophenyl)-2-{[(4-methoxymethyl-2-methylpyrimidin-5-yl)oxy]methyl}cyclopropanecarboxamide]			215	8
Cc1ncc(OCC2(c3ccccc3Cl)CC2C(=O)Nc2ccc(Cl)cn2)c(C)n1 (stereo not drawn) [Example 152]	58	36		
COc1ccc([C@]2(COc3cnc(C)nc3C)C[C@H]2C(=O)Nc2ccc(F)cn2)cc1F [Example 322, (1R,2S)-2-{[(2,4-dimethylpyrimidin-5-yl)oxy]methyl}-2-(3-fluoro-4-methoxyphenyl)-N-(5-fluoropyridin-2-yl)cyclopropanecarboxamide]	30	7		
Cc1ncc(OC[C@@]2(c3ccc(F)cc3)C[C@H]2C(=O)Nc2cc(C)c(F)cn2)c(C)n1 [Example 111, (1R,2S)-2-{[(2,4-dimethylpyrimidin-5-yl)oxy]methyl}-N-(5-fluoro-4-methylpyridin-2-yl)-2-(4-fluorophenyl)cyclopropanecarboxamide]			34	6
Cc1ncc(OC[C@@]2(c3ccc(F)c(F)c3)C[C@H]2C(=O)Nc2ccccn2)c(C)n1 [Example 166, (1R,2S)-2-(3,4-difluorophenyl)-2-{[(2,4-dimethylpyrimidin-5-yl)oxy]methyl}-N-(pyridin-2-yl)cyclopropanecarboxamide]	50	7		
Cc1ncc(OC[C@@]2(c3ccccc3)C[C@H]2C(=O)Nc2ccc(C(F)(F)F)cn2)c(C)n1 [Example 5]			145	38
COCc1nc(C)ncc1OC[C@@]1(c2cc(F)cc(OC)c2)C[C@H]1C(=O)Nc1cc(C)c(F)cn1 [Example 234, (1R,2S)-2-(3-fluoro-5-methoxyphenyl)-N-(5-fluoro-4-methylpyridin-2-yl)-2-{[(4-methoxymethyl-2-methylpyrimidin-5-yl)oxy]methyl}cyclopropanecarboxamide]			< 2	4
Cc1ncc(OC[C@@]2(c3cccc(F)c3)C[C@H]2C(=O)Nc2ccc(F)c(O)n2)c(C)n1 [Example 325, (1R,2S)-2-{[(2,4-dimethylpyrimidin-5-yl)oxy]methyl}-N-(5-fluoro-6-hydroxypyridin-2-yl)-2-(3-fluorophenyl)cyclopropanecarboxamide]	158	20		
Cc1ncc(OC[C@@]2(c3cccc(C(F)(F)F)c3)C[C@H]2C(=O)Nc2ccc(F)cn2)c(C)n1 [Example 266, (1R,2S)-2-{[(2,4-dimethylpyrimidin-5-yl)oxy]methyl}-N-(5-fluoropyridin-2-yl)-2-(3-trifluoromethylphenyl)cyclopropanecarboxamide]	30	2.7		
Cc1ncc(OC[C@@]2(c3ccccc3)C[C@H]2C(=O)Nc2cc(F)cc(F)n2)c(C)n1 [Example 76-1, (1R,2S)-N-(4,6-difluoropyridin-2-yl)-2-{[(2,4-dimethylpyrimidin-5-yl)oxy]methyl}-2-phenylcyclopropanecarboxamide]	489	61		
Cc1ncc(OC[C@@]2(c3cccc(F)c3)C[C@H]2C(=O)Nc2ccc(F)nc2)c(C)n1 [Example 88]	267	13		
Cc1ncc(OCC2(c3cc(F)ccc3F)CC2C(=O)Nc2ccc(F)cn2)c(C)n1 (stereo not drawn) [Example 163, 2-(2,5-difluorophenyl)-2-{[(2,4-dimethylpyrimidin-5-yl)oxy]methyl}-N-(5-fluoropyridin-2-yl)cyclopropanecarboxamide]	< 20	10		
Cc1ncc(OC[C@@]2(c3ccccc3)C[C@H]2c2nc3cc(F)ccc3[nH]2)c(C)n1 [Example 303, 2-{(1R,2S)-2-{[(2,4-dimethylpyrimidin-5-yl)oxy]methyl}-2-phenylcyclopropyl}-5-fluoro-1H-benzimidazole]			75	3
Cc1ncc(OCC2(c3ccc(Cl)cc3)CC2C(=O)Nc2cccnc2)c(C)n1 (stereo not drawn) [Example 160]			389	28
Cc1ncc(OC[C@@]2(c3ccccc3)C[C@H]2C(=O)Nc2cc(C#N)ccn2)c(C)n1 [Example 46]			423	43
COc1cc(NC(=O)[C@@H]2C[C@@]2(COc2cnc(C)nc2C)c2ccc(F)c(F)c2)ncc1F [Example 173, (1R,2S)-2-(3,4-difluorophenyl)-2-{[(2,4-dimethylpyrimidin-5-yl)oxy]methyl}-N-(5-fluoro-4-methoxypyridin-2-yl)cyclopropanecarboxamide]			3.6	3.3
COCc1cccc(NC(=O)[C@@H]2C[C@@]2(COc2cnc(C)nc2C)c2ccccc2)c1 [Example 42]	374	12		
Cc1ncc(OC[C@@]2(c3ccccc3)C[C@H]2C(=O)Nc2cccc(-c3nnc[nH]3)c2)c(C)n1 [Example 38]			518	29
